{
  "source": "ChEMBL document CHEMBL5376005",
  "about": "“Gut Metabolite Indoxyl Sulfate Has Selective Deleterious and Anticancer Effect on Colon Cancer Cells” (J Med Chem, 2023)",
  "key": {"[1]": {"test_system": "HCT-116", "assay": "Cytotoxicity against human HCT-116 cells assessed as cell viability at 10 mM measured after 24 hrs by MTT assay (reference value: 100%)", "assay_type": "functional", "conditions": "HCT-116, 24 h, read-out: Activity"}, "[2]": {"test_system": "HCT-116", "assay": "Cytotoxicity against human HCT-116 cells assessed as cell viability at 10 mM measured after 48 hrs by MTT assay (reference value: 100%)", "assay_type": "functional", "conditions": "HCT-116, 48 h, read-out: Activity"}, "[3]": {"test_system": "HCT-116", "assay": "Cytotoxicity against human HCT-116 cells assessed as cell viability at 10 mM measured after 72 hrs by MTT assay (reference value: 100%)", "assay_type": "functional", "conditions": "HCT-116, 72 h, read-out: Activity"}, "[4]": {"test_system": "HT-29", "assay": "Cytotoxicity against human HT-29 cells assessed as cell viability at 10 mM measured after 24 hrs by MTT assay (reference value: 100%)", "assay_type": "functional", "conditions": "HT-29, 24 h, read-out: Activity"}, "[5]": {"test_system": "HT-29", "assay": "Cytotoxicity against human HT-29 cells assessed as cell viability at 10 mM measured after 48 hrs by MTT assay (reference value: 100%)", "assay_type": "functional", "conditions": "HT-29, 48 h, read-out: Activity"}, "[6]": {"test_system": "HT-29", "assay": "Cytotoxicity against human HT-29 cells assessed as cell viability at 10 mM measured after 72 hrs by MTT assay (reference value: 100%)", "assay_type": "functional", "conditions": "HT-29, 72 h, read-out: Activity"}, "[7]": {"test_system": "HCT-116", "assay": "Cytotoxicity against human HCT-116 cells assessed as reduction in cell viability measured after 24 to 72 hrs by MTT assay", "assay_type": "functional, cell-based", "conditions": "dose 0.01-10 mM, time 24-72 hrs"}, "[8]": {"test_system": "HCT-116", "assay": "Cytotoxicity against human HCT-116 cells assessed as reduction in cell viability at 0.01 to 10 mM by MTT assay", "assay_type": "functional, cell-based", "conditions": "dose 0.01-10 mM, time 24-72 hrs, TDE = time-dependent effect"}, "[9]": {"test_system": "HT-29", "assay": "Cytotoxicity against human HT-29 cells assessed as reduction in cell viability measured after 24 to 72 hrs by MTT assay", "assay_type": "functional, cell-based", "conditions": "dose 0.01-10 mM, time 24-72 hrs"}, "[10]": {"test_system": "HT-29", "assay": "Cytotoxicity against human HT-29 cells assessed as reduction in cell viability at 0.01 to 10 mM by MTT assay", "assay_type": "functional, cell-based", "conditions": "dose 0.01-10 mM, time 24-72 hrs, TDE = time-dependent effect"}, "[11]": {"test_system": "HCT-116", "assay": "Cytotoxicity against human HCT-116 cells assessed as cell viability at 10 mM measured after 72 hrs by CellTiter-Glo luminescent cell viability assay (reference value: 100%)", "assay_type": "functional", "conditions": "HCT-116, 72 h, read-out: Activity"}, "[12]": {"test_system": "HT-29", "assay": "Cytotoxicity against human HT-29 cells assessed as cell viability at 10 mM measured after 72 hrs by CellTiter-Glo luminescent cell viability assay (reference value: 100%)", "assay_type": "functional", "conditions": "HT-29, 72 h, read-out: Activity"}, "[13]": {"test_system": "HCT-116", "assay": "Cytotoxicity against human HCT-116 cells assessed as reduction in cell viability measured after 48 to 72 hrs by CellTiter-Glo luminescent cell viability assay", "assay_type": "functional, cell-based", "conditions": "dose 0.01-10 mM, time 48-72 hrs"}, "[14]": {"test_system": "HT-29", "assay": "Cytotoxicity against human HT-29 cells assessed as reduction in cell viability measured after 48 to 72 hrs by CellTiter-Glo luminescent cell viability assay", "assay_type": "functional, cell-based", "conditions": "dose 0.01-10 mM, time 48-72 hrs"}, "[15]": {"test_system": "HCT-116", "assay": "Cytotoxicity against human HCT-116 cells assessed as reduction in cell viability at 0.01 to 10 mM by CellTiter-Glo luminescent cell viability assay", "assay_type": "functional, cell-based", "conditions": "dose 0.01-10 mM, time 48-72 hrs, TDE = time-dependent effect"}, "[16]": {"test_system": "HT-29", "assay": "Cytotoxicity against human HT-29 cells assessed as reduction in cell viability at 0.01 to 10 mM by CellTiter-Glo luminescent cell viability assay", "assay_type": "functional, cell-based", "conditions": "dose 0.01-10 mM, time 48-72 hrs, TDE = time-dependent effect"}, "[17]": {"test_system": "Cell membrane", "assay": "Induction of membrane integrity loss in human HCT-116 cells assessed as LDH release in supernatant at 5 mM incubated for 48 hrs by absorbance based assay relative to control", "assay_type": "subcellular"}, "[18]": {"test_system": "Cell membrane", "assay": "Induction of membrane integrity loss in human HCT-116 cells assessed as LDH release in supernatant at 10 mM incubated for 48 hrs by absorbance based assay relative to control"}, "[19]": {"test_system": "Cell membrane", "assay": "Induction of membrane integrity loss in human HT-29 cells assessed as LDH release in supernatant at 5 mM incubated for 48 hrs by absorbance based assay relative to control", "assay_type": "subcellular"}, "[20]": {"test_system": "Cell membrane", "assay": "Induction of membrane integrity loss in human HT-29 cells assessed as LDH release in supernatant at 10 mM incubated for 48 hrs by absorbance based assay relative to control", "assay_type": "subcellular"}, "[21]": {"test_system": "Cell membrane", "assay": "Induction of membrane integrity loss in human HCT-116 cells assessed as increase in LDH release in supernatant incubated for 48 hrs by absorbance based assay", "assay_type": "subcellular", "conditions": "dose 1.25-10 mM"}, "[22]": {"test_system": "Cell membrane", "assay": "Induction of membrane integrity loss in human HT-29 cells assessed as increase in LDH release in supernatant incubated for 48 hrs by absorbance based assay", "assay_type": "subcellular", "conditions": "dose 1.25-10 mM"}, "[23]": {"test_system": "HCT-116", "assay": "Induction of apoptosis in human HCT-116 cells assessed as increase in apoptotic cells at 5 mM incubated for 48 hrs by annexin V-FITC/PI staining based flow cytometry analysis (reference value: 3%)", "assay_type": "functional"}, "[24]": {"test_system": "HCT-116", "assay": "Induction of apoptosis in human HCT-116 cells assessed as increase in apoptotic cells at 10 mM incubated for 48 hrs by annexin V-FITC/PI staining based flow cytometry analysis (reference value: 3%)", "assay_type": "functional"}, "[25]": {"test_system": "HT-29", "assay": "Induction of apoptosis in human HT-29 cells assessed as increase in apoptotic cells at 5 mM incubated for 48 hrs by annexin V-FITC/PI staining based flow cytometry analysis (reference value: 3%)", "assay_type": "functional"}, "[26]": {"test_system": "HT-29", "assay": "Induction of apoptosis in human HT-29 cells assessed as increase in apoptotic cells at 10 mM incubated for 48 hrs by annexin V-FITC/PI staining based flow cytometry analysis (reference value: 3%)", "assay_type": "functional"}, "[27]": {"test_system": "HCT-116", "assay": "Induction of morphological changes in human HCT-116 cells assessed as appearance of rounded morphology at 1.25 to 10 mM incubated for 24 to 72 hrs by bright field microscopy analysis", "assay_type": "functional, cell-based", "conditions": "dose 1.25-10 mM, time 24-72 hrs"}, "[28]": {"test_system": "HT-29", "assay": "Induction of morphological changes in human HT-29 cells assessed as appearance of rounded morphology at 1.25 to 10 mM incubated for 24 to 72 hrs by bright field microscopy analysis", "assay_type": "functional, cell-based", "conditions": "dose 1.25-10 mM, time 24-72 hrs"}, "[29]": {"test_system": "HCT-116", "assay": "Induction of morphological changes in human HCT-116 cells assessed as reduction in cell number at 1.25 to 10 mM incubated for 24 to 72 hrs by bright field microscopy analysis", "assay_type": "functional, cell-based", "conditions": "dose 1.25-10 mM, time 24-72 hrs"}, "[30]": {"test_system": "HT-29", "assay": "Induction of morphological changes in human HT-29 cells assessed as reduction in cell number at 1.25 to 10 mM incubated for 24 to 72 hrs by bright field microscopy analysis", "assay_type": "functional, cell-based", "conditions": "dose 1.25-10 mM, time 24-72 hrs"}, "[31]": {"test_system": "HCT-116", "assay": "Induction of morphological changes in human HCT-116 cells assessed as detachment from substrate at 1.25 to 10 mM incubated for 24 to 72 hrs by bright field microscopy analysis", "assay_type": "functional, cell-based", "conditions": "dose 1.25-10 mM, time 24-72 hrs"}, "[32]": {"test_system": "HT-29", "assay": "Induction of morphological changes in human HT-29 cells assessed as detachment from substrate at 1.25 to 10 mM incubated for 24 to 72 hrs by bright field microscopy analysis", "assay_type": "functional, cell-based", "conditions": "dose 1.25-10 mM, time 24-72 hrs"}, "[33]": {"test_system": "HCT-116", "assay": "Induction of morphological changes in human HCT-116 cells assessed as formation of intracellular vesicles at 1.25 to 10 mM incubated for 24 to 72 hrs by bright field microscopy analysis", "assay_type": "functional, cell-based", "conditions": "dose 1.25-10 mM, time 24-72 hrs"}},
  "note": "Where a name gives a salt, the structure may show the parent alone. Active and inactive are the calls of the source. The calls are words filed in the database; no cut-off is given here.",
  "data": [
    {"smiles": "O=S(=O)(O)Oc1c[nH]c2ccccc12", "note": "[INDOXYL SULFATE]", "values": [
      {"measurement": "viability at 10000 µM", "setting": "[1]", "value": 30, "unit": "%"},
      {"measurement": "viability at 10000 µM", "setting": "[2]", "value": 7, "unit": "%"},
      {"measurement": "viability at 10000 µM", "setting": "[3]", "value": 4, "unit": "%"},
      {"measurement": "viability at 10000 µM", "setting": "[4]", "value": 41, "unit": "%"},
      {"measurement": "viability at 10000 µM", "setting": "[5]", "value": 30, "unit": "%"},
      {"measurement": "viability at 10000 µM", "setting": "[6]", "value": 17, "unit": "%"},
      {"measurement": "Activity", "setting": "[7]", "value": "Dose-Dependent Effect"},
      {"measurement": "Activity", "setting": "[8]", "value": "Tde"},
      {"measurement": "Activity", "setting": "[9]", "value": "Dose-Dependent Effect"},
      {"measurement": "Activity", "setting": "[10]", "value": "Tde"},
      {"measurement": "viability at 10000 µM", "setting": "[11]", "value": 3, "unit": "%"},
      {"measurement": "viability at 10000 µM", "setting": "[12]", "value": 19, "unit": "%"},
      {"measurement": "Activity", "setting": "[13]", "value": "Dose-Dependent Effect"},
      {"measurement": "Activity", "setting": "[14]", "value": "Dose-Dependent Effect"},
      {"measurement": "Activity", "setting": "[15]", "value": "Tde"},
      {"measurement": "Activity", "setting": "[16]", "value": "Tde"},
      {"measurement": "Activity", "setting": "[17]", "value": 80, "unit": "%"},
      {"measurement": "Activity", "setting": "[18]", "value": 86, "unit": "%"},
      {"measurement": "Activity", "setting": "[19]", "value": 82, "unit": "%"},
      {"measurement": "Activity", "setting": "[20]", "value": 85, "unit": "%"},
      {"measurement": "Activity", "setting": "[21]", "value": "Dose-Dependent Effect"},
      {"measurement": "Activity", "setting": "[22]", "value": "Dose-Dependent Effect"},
      {"measurement": "Activity", "setting": "[23]", "value": 9, "unit": "%"},
      {"measurement": "Activity", "setting": "[24]", "value": 13, "unit": "%"},
      {"measurement": "Activity", "setting": "[25]", "value": 8, "unit": "%"},
      {"measurement": "Activity", "setting": "[26]", "value": 12, "unit": "%"},
      {"measurement": "Activity", "setting": "[27]", "value": "Active"},
      {"measurement": "Activity", "setting": "[28]", "value": "Active"},
      {"measurement": "Activity", "setting": "[29]", "value": "Active"},
      {"measurement": "Activity", "setting": "[30]", "value": "Active"},
      {"measurement": "Activity", "setting": "[31]", "value": "Active"},
      {"measurement": "Activity", "setting": "[32]", "value": "Active"},
      {"measurement": "Activity", "setting": "[33]", "value": "Active"}
    ]}
  ]
}
